The subject of data set [1] is Sprague Dawley rats. The experiment in a line: Continuous IV infusion anesthesia. The class given is in vivo, rat. The note with it: for time after start of injection to loss-of-righting and absent tail clamp response: continuous 0.2 mL/min IV infusion of 10% emulsion. How it is done:
Lateral tail veins were catheterized in eight, 70-day-old, male, Sprague Dawley rats weighing 309±6 g. A 10% solution of L-carvone or methyl salicylate in 20% […]® was each administered IV to 8 rats (4 animals per drug treatment) by using a syringe pump at a rate of 12 mL/h. When rats lost their righting reflex and were unresponsive to a tail clamp, a midline laparotomy was performed, the abdominal aorta catheterized, and the rat exsanguinated. Blood was collected in a heparin tube and centrifuged; plasma was separated and stored in cryogenic tubes at −80° C. until analysis.

Data set [2] deals with T1, NMDA receptors (rat NR1 GRIN1 and rat NR2a GRIN2A subunits) (Rattus norvegicus, UniProt P35439+Q00959).
T1 construct: expressed in transfected cells; host or cells: Xenopus laevis oocytes (intracytoplasmic RNA injection)
T1 sequence (Q00959 20-1464 limits assumed, other chains not shown): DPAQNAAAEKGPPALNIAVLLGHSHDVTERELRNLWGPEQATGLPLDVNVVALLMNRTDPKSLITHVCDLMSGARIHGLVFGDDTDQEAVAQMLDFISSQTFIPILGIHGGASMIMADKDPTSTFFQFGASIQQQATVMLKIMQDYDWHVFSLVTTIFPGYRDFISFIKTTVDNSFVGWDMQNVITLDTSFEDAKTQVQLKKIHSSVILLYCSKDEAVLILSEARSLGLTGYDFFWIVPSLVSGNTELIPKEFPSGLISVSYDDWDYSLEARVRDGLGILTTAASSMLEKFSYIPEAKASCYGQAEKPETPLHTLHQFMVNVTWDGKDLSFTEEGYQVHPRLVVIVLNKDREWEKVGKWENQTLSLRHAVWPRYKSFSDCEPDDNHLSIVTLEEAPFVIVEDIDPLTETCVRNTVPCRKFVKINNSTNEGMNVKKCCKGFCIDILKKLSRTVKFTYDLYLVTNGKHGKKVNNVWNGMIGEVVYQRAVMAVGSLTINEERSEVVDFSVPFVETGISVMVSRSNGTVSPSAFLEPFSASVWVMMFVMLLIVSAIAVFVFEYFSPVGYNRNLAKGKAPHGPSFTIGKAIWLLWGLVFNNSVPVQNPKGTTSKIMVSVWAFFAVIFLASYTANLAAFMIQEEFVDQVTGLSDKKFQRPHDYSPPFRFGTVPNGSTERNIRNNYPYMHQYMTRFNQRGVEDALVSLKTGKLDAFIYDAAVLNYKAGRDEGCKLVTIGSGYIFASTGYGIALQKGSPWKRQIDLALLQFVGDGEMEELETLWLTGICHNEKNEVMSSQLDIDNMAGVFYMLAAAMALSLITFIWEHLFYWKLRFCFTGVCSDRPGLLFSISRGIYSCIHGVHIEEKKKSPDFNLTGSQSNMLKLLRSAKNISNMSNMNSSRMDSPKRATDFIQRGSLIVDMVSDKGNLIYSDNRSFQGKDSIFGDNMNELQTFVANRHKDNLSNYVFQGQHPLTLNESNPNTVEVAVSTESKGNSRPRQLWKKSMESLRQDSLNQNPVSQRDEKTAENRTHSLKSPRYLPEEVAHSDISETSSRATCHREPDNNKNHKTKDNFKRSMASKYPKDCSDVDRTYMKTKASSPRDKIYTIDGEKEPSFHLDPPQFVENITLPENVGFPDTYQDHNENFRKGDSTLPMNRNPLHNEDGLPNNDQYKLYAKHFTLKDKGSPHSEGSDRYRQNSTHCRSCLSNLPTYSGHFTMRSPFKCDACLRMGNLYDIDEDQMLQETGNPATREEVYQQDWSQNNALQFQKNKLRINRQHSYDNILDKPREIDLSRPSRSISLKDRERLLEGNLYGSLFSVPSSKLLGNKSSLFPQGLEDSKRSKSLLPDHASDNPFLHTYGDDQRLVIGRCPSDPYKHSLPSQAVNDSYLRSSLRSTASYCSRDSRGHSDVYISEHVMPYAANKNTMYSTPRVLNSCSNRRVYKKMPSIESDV
In words: Two-electrode voltage clamp of NMDA receptors expressed in Xenopus oocytes. The note with it: for inhibition of NMDA receptors: at the mean plasma concentration during IV infusion anesthesia in rats; for Hill coefficient, NMDA receptor inhibition: dose-response model; for effect on NMDA receptor currents: dose-response, oocytes. The class given is cell-based. From the text:
Ovaries removed from sexually mature Xenopus laevis frogs were bluntly dissected to remove surrounding connective tissue and then digested with 0.2% type I collagenase in an oocyte Ringer's solution. Once free from thecal cells and connective tissue, individual oocytes were rinsed, sorted, and stored in a modified Barth's solution (R. Brosnan et al., Anesth. Analg. 103, (2006): 86; L. Yang, P. S. Milutinovic, R. J. Brosnan, E. I. Eger 2nd, & J. M. Sonner, Anesth. Analg. 105, (2007): 393; R. J. Brosnan, F. B. Fukushima, & T. L. Pham, Anaesth. Analg. 44, (2017): 577; A. Cenani, R. J. Brosnan, & H. K. Knych, Pharmacology 103, (2019): 10).
Heteromeric GABAA receptors were expressed in oocytes by blind intranuclear injection of 1 ng DNA encoding the human al (GABRA1) and rat B2 (GABRB2) subunits in a 1:1 ratio. NMDA receptors were expressed by intracytoplasmic injection of 5 ng RNA encoding rat NR1 (GRIN1) and rat NR2a (GRIN2A) subunits in a 1:1 ratio. Nax 1.2 channels were expressed by injection of 5 ng RNA encoding the human SCN2A gene.
Studies of NMDA receptors were carried out using equipment identical to that described for GABAA receptors. Transmembrane potential was clamped at −80 mV, and oocytes were perfused with a barium-containing FR solution (Ba-FR) which substituted equimolar BaCl2 for calcium salts and contained 0.1 mM EGTA as a calcium chelator. After 5 min, the perfusate was changed for 30 s to barium FR containing 0.1 mM glutamate plus 0.01 mM glycine (Ba-FREG) as receptor agonists which produce an NMDA receptor current greater than 99% of the maximal response. Next, Ba-FR containing the study drug was perfused for 5 min and then switched to Ba-FREG containing the same test article for 30 s. The drug was then washed out with a 5-min perfusion of Ba-FR followed by a 30-s exposure to Ba-FREG to confirm post-drug currents had returned to within 10% of pre-drug values.
The change in whole cell peak current before and during agonist exposure (for GABAA and NMDA receptors) or before and during the voltage step clamp (for Nav1.2 channels) was measured in the tracings immediately before and during drug exposure. Percent change in current was calculated as follows:
[formula] • where IB is the baseline pre-drug current peak and ID is the drug current peak. For each drug and ion channel, data were fit to a Hill equation using nonlinear regression with sequential quadratic programming and bootstrap estimates of parameter standard errors (SPSS, v. 27; IBM, Armonk, NY, USA). In the model, maximum drug inhibition (Imax) was constrained to not be less than −100%. Initial parameter estimates were seeded with values based on visual inspection of respective dose-response curves in order to facilitate model convergence.

The subject of data set [3] is Sprague Dawley rats. The experiment in a line: Pilot study, single IV bolus injection, righting reflex and tail clamp response. Particulars: for time to return of righting reflex: methyl salicylate: the 2 surviving rats. The method, then: Solutions of 10% (v/v) L-carvone or methyl salicylate were prepared sterilely in 20% […]® (Fresenius Kabi, Lake Zurich, IL, USA). Lateral tail vein catheters were placed in twenty-one 69-day-old, male, Sprague Dawley rats weighing 291±17 (mean±SD) grams. Each rat received a single intravenous bolus injection of L-carvone solution (0.2 or 0.4 mL), methyl salicylate solution (0.1, 0.15, 0.2, or 0.4 mL), or a 1:1 mixture of the L-carvone and methyl salicylate solutions over 15 s. Because L-carvone density is 0.9673 g/cm^3 at 25° C., 0.2 mL and 0.4 mL of solution contained 19 mg and 39 mg of L-carvone, respectively (E. E. Royals & S. E. Horne, J. Am. Chem. Soc. 73, (1951): 5850).
Spontaneous motor activity and loss-of-righting reflex was assessed at 5- to 10-s intervals, and nociception response to an alligator clamp applied to the tail was tested if the righting reflex was absent. […] Animals were weighed 24 and 48 h after the study and then euthanized for gross pathology examination.

[4] abbreviates: 0.2 mL IV bolus of 10% emulsion.

Consider 2 compounds from patent publication US20240226034A1, “Use of Terpenoids and Salicylates as Anesthetics and Analgesics” (THE REGENTS OF THE UNIVERSITY OF CALIFORNIA, priority 2021, published 2024).

As to `COC(=O)c1ccccc1O` [methyl salicylate], the “time after start of injection to loss-of-righting and absent tail clamp response” value in data set [1] was in the range of 3 to 4 min. In data set [1] (rat, in vivo, iv), the excitement after injection entry was “transient excitement in half of the animals” and the “tonic or clonic muscle activity” value is recorded as “No tonic or clonic muscle activity”. In data set [2], the “inhibition of NMDA receptors” value is 53%; the “Hill coefficient, NMDA receptor inhibition” value is given as approximately 1; the “effect on NMDA receptor currents” value is “dose-dependently inhibited”. Also, in data set [3] (0.1 mL IV bolus of 10% emulsion in 20% INTRALIPID, single rat), the “time to loss-of-righting reflex” value is 33 s. For the same compound, in data set [3] (0.1 mL IV bolus, single rat), the “general anesthesia (immobility in response to a tail clamp)” value is listed as “never resulted in general anesthesia” and the “time to return-of-righting reflex” value came out at 60 s. In data set [3] (0.15 mL IV bolus, N=4 rats), the time to anesthesia amounted to 39 ± 2 s, the time to loss-of-righting stood at 35 ± 5 s, the “time to normal ambulation without ataxia” value is 76 ± 10 s and the “time to return from anesthesia (tail clamp response) after drug injection” value turned out to be 64 ± 8 s. Also, in data set [3] (0.15 mL IV bolus, N=4 rats), the “time to return of righting after drug injection” value turned out to be 53 ± 3 s. Further, in data set [3] (0.2 mL IV bolus), the “time to walking and active / ambulating normally” value came to 110 s; the “time to return of righting reflex” value is 58 s. In data set [3] (setting [4]), the “time to loss of tail clamp response (general anesthesia)” value worked out at 37 ± 13 s and the “time to loss-of-righting reflex” value was determined as 35 ± 10 s. Further, the “time to regain tail clamp response” value in data set [3] (0.2 mL IV bolus, the 2 surviving rats) was 48 s. The same compound came in with a time to unconsciousness in data set [3] (0.4 mL IV bolus) of 20 ± 5 s. In data set [3] (rat, in vivo), the “body weight for the next two days, relative to baseline values” is 97-98% and the “gross pathology / necropsy findings” value is “no gross abnormalities”.

With L-carvone, the “tonic or clonic muscle activity” value in data set [1] (continuous 0.2 mL/min IV infusion) is reported as “tonic muscle contractions suggestive of seizure”. The “time after start of injection to loss-of-righting and absent tail clamp response” value in data set [1] fell in the range of 2 to 4 min. In data set [2] (10 mM drug), the “NMDA receptor current at highest concentration” value is given as “near or complete loss of channel currents”. For the same compound, the “greater inhibition of NMDA receptors and Nav1.2 channels than at the methyl salicylate plasma concentrations” value in data set [2] (at L-carvone plasma concentrations during anesthesia, NMDA and Nav1.2) was 15-30%. Further, in data set [2], the “inhibition of NMDA receptors” value amounted to 71%; the “Hill coefficient, NMDA receptor inhibition” value is listed as approximately 1; the “effect on NMDA receptor currents” value is reported as “dose-dependent inhibition”. In addition, in data set [3] (0.2 mL IV bolus), the “body weight over the next 2 days, deviation from baseline” value is listed as 1.9±1.4%; the “time to walking and active / ambulating normally” value came to 60 ± 13 s; the “time to return of righting reflex” value worked out at 58 ± 14 s. In data set [3] (setting [4]), the “time to loss of tail clamp response (general anesthesia)” value amounted to 54 ± 11 s and the “time to loss-of-righting reflex” value turned out to be 40 ± 6 s. In data set [3] (0.2 mL IV bolus, N=4 rats), the “behavioural sign before loss-of-righting reflex” value is given as “transient excitement” and the “duration of transiently decreased respiratory rate” value is recorded as “approximately 10 s”. Also, in data set [3] (0.2 mL IV bolus, half of the rats), the “duration of whole-body muscle hypertonia” value amounted to 15 s. Besides, in data set [3] (0.4 mL IV bolus), the “time to cardiopulmonary arrest” value amounted to 35 ± 18 s and the time to unconsciousness came out at 20 ± 4 s. The “gross pathology / necropsy findings” value in data set [3] (recovered animals (sublethal doses), 48 h after drug administration) was “no gross pathology findings”.
